Assay results as given in ChEMBL document CHEMBL4346735, “Discovery and pharmacological evaluation of indole derivatives as potent and selective RORγt inverse agonist for multiple autoimmune conditions” (Bioorg Med Chem Lett, 2019).
≈ marks a conversion by molar mass, not a printed value.

Experiments:
[1] = molecular target: T1, Nuclear receptor ROR-gamma (Homo sapiens, UniProt P51449); experiment: Transactivation of recombinant GAL4-DBD fused RORgammat LBD (unknown origin) expressed in HEK293T cells incubated for 18 to 24 hrs by dual-Glo luciferase assay; assay type: cell-based
T1 sequence (P51449 whole entry): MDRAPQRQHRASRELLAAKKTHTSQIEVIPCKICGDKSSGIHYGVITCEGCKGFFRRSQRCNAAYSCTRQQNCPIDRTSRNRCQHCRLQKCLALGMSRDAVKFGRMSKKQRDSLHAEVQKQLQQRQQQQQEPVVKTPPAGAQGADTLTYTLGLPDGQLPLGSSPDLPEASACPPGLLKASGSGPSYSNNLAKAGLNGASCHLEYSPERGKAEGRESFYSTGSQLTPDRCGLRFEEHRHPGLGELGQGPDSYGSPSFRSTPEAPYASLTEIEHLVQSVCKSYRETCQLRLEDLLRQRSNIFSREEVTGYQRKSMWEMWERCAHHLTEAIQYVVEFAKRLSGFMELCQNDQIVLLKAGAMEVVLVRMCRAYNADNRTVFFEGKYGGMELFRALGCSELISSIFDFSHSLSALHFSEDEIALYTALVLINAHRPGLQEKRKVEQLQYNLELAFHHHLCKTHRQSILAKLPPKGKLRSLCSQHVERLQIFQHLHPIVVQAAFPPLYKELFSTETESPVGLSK

[2] = molecular target: T2, Cytochrome P450 1A2 (Homo sapiens, UniProt P05177); experiment: Inhibition of CYP1A2 in human liver microsomes using phenacetin as substrate preincubated for 5 mins followed by NADPH addition measured after 10 mins by LC-MS/MS analysis
T2 sequence (P05177 whole entry): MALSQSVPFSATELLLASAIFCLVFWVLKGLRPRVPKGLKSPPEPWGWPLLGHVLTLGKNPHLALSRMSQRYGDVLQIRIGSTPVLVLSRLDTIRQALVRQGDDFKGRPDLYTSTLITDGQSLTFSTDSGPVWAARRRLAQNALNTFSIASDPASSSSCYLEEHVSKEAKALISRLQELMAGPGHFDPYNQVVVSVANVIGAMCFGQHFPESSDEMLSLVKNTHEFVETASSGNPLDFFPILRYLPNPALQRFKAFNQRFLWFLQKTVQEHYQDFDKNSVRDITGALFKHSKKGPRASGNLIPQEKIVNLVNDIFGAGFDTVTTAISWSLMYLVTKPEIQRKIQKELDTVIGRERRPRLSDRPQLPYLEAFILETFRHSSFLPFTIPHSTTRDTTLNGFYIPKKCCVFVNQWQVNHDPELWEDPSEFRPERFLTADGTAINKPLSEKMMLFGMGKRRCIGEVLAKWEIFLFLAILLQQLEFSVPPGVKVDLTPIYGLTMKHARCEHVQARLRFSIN

[3] = molecular target: Cytochrome P450 2C9 (Homo sapiens, UniProt P11712); experiment: Inhibition of CYP2C9 in human liver microsomes using diclofenac as substrate preincubated for 5 mins followed by NADPH addition measured after 10 mins by LC-MS/MS analysis
Cytochrome P450 2C9, sequence (P11712 whole entry): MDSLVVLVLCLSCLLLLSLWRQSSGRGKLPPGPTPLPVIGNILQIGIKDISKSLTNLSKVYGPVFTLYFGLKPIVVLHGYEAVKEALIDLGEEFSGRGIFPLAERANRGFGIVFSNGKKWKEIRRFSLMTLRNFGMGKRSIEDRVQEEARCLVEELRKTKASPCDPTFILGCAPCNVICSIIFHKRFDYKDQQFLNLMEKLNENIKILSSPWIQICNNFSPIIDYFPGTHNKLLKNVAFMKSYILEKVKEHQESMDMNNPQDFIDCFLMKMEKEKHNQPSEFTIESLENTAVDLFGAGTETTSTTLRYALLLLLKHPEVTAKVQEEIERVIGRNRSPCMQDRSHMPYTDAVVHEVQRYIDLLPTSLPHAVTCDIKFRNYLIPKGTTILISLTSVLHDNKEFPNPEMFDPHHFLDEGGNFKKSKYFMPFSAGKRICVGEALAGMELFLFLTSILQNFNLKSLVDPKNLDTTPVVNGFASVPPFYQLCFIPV

[4] = molecular target: Cytochrome P450 2C19 (Homo sapiens, UniProt P33261); experiment: Inhibition of CYP2C19 in human liver microsomes using (S)-mephenytoin as substrate preincubated for 5 mins followed by NADPH addition measured after 40 mins by LC-MS/MS analysis
Cytochrome P450 2C19, sequence (P33261 whole entry): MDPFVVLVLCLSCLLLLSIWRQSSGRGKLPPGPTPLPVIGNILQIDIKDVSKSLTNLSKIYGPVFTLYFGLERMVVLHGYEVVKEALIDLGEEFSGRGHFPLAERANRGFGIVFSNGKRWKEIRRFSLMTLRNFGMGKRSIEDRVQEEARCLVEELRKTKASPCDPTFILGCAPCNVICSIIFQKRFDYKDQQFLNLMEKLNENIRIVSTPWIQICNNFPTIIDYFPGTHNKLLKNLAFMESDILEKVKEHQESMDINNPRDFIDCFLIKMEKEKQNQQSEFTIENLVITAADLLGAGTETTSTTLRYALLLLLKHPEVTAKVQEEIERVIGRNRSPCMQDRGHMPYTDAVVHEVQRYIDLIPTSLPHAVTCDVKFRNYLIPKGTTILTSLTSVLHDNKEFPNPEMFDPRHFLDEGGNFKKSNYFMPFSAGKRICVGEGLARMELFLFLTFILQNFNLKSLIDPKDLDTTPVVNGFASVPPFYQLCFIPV

[5] = molecular target: Cytochrome P450 2D6 (Homo sapiens, UniProt P10635); experiment: Inhibition of CYP2D6 in human liver microsomes using dextromethorphan as substrate preincubated for 5 mins followed by NADPH addition measured after 10 mins by LC-MS/MS analysis
Cytochrome P450 2D6, sequence (P10635 whole entry): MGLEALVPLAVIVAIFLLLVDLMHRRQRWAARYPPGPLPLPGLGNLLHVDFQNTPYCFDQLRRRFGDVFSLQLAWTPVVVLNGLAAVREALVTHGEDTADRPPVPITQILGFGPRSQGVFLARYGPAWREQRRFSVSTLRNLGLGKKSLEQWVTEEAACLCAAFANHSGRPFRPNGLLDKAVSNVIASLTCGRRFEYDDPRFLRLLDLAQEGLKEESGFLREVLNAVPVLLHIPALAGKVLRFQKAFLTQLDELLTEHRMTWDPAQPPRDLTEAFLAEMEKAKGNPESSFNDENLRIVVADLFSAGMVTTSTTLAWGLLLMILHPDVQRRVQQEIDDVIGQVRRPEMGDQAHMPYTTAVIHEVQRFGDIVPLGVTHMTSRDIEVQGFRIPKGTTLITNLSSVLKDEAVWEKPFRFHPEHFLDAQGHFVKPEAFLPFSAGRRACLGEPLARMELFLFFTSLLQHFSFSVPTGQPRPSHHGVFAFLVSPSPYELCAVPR

[6] = Cmax in mouse at 10 mg/kg, po; assay type: ADME, organism-based; set-up: dose 10 mg/kg, route oral; details: in vivo
[7] = Tmax in mouse at 10 mg/kg, po; assay type: ADME, organism-based; details: in vivo
[8] = AUC (0 to 24 hrs) in mouse at 10 mg/kg, po; assay type: ADME, organism-based; set-up: dose 10 mg/kg, time < 24 hr, route oral; details: in vivo
[9] = Volume of distribution at steady state in mouse at 3 mg/kg, iv; assay type: ADME, organism-based; details: in vivo, read-out: Vdss
[10] = Clearance in mouse at 3 mg/kg, iv; assay type: ADME, organism-based; details: in vivo
[11] = Half life in mouse at 3 mg/kg, iv; assay type: ADME, organism-based; details: in vivo
[12] = Oral bioavailability in mouse at 10 mg/kg; assay type: ADME, organism-based; details: in vivo
[13] = molecular target: T3, Nuclear receptor ROR-alpha (Homo sapiens, UniProt P35398); experiment: Inhibition of GAL4-DBD fused RORalpha LBD (unknown origin) expressed in HEK293T cells; assay type: cell-based
T3 sequence (P35398 whole entry): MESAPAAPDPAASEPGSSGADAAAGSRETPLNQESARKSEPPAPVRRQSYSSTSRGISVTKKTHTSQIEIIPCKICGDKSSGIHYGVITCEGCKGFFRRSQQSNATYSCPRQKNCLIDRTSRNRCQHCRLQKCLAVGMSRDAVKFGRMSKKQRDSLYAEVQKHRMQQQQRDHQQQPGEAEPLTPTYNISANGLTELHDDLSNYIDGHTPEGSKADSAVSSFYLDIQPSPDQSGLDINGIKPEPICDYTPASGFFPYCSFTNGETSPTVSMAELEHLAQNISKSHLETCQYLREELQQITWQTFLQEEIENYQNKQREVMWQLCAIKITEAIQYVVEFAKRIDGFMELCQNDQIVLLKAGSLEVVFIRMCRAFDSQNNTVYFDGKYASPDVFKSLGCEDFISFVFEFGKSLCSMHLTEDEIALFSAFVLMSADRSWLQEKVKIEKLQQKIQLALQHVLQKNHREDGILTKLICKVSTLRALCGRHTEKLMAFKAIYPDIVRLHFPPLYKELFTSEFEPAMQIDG

[14] = Metabolic stability in mouse liver microsomes assessed as parent compound remaining at 1 uM preincubated for 5 mins followed by NADPH addition after 30 mins by LC-MS/MS analysis; assay type: ADME, Microsome; details: read-out: Stability
[15] = Metabolic stability in rat liver microsomes assessed as parent compound remaining at 1 uM preincubated for 5 mins followed by NADPH addition after 30 mins by LC-MS/MS analysis; assay type: ADME, Microsome; details: read-out: Stability
[16] = Metabolic stability in human liver microsomes assessed as parent compound remaining at 1 uM preincubated for 5 mins followed by NADPH addition after 30 mins by LC-MS/MS analysis; assay type: ADME, Microsome; details: read-out: Stability
[17] = molecular target: T1, Nuclear receptor ROR-gamma; experiment: Inverse agonist activity at GST-tagged RORgammat LBD (unknown origin) using fluorescein-D22 co-activator peptide as substrate incubated for 1 hr by TR-FRET assay
[18] = Drug metabolism in mouse liver microsomes assessed as oxidation metabolic rate at 1 uM preincubated for 5 mins followed by NADPH addition after 30 mins by LC-MS/MS analysis; assay type: ADME, Microsome; details: 0.5 h
[19] = Drug metabolism in rat liver microsomes assessed as oxidation metabolic rate at 1 uM preincubated for 5 mins followed by NADPH addition after 30 mins by LC-MS/MS analysis; assay type: ADME, Microsome; details: 0.5 h
[20] = Drug metabolism in human pooled liver microsomes assessed as oxidation metabolic rate at 1 uM preincubated for 5 mins followed by NADPH addition after 30 mins by LC-MS/MS analysis; assay type: ADME, Microsome; details: 0.5 h
[21] = AUC (0 to t) in Balb/c mouse at 3 mg/kg, iv administered as single dose by LC-MS/MS analysis; assay type: ADME, organism-based; details: in vivo
[22] = Clearance in Balb/c mouse at 3 mg/kg, iv administered as single dose by LC-MS/MS analysis; assay type: ADME, organism-based; details: in vivo
[23] = Half life in Balb/c mouse at 3 mg/kg, iv administered as single dose by LC-MS/MS analysis; assay type: ADME, organism-based; details: in vivo
[24] = Oral bioavailability in Balb/c mouse at 10 mg/kg administered via gavage by LC-MS/MS analysis; assay type: ADME, organism-based; details: in vivo
[25] = molecular target: T4, Cytochrome P450 3A4 (Homo sapiens, UniProt P08684); experiment: Inhibition of CYP3A4 in human liver microsomes using midazolam as substrate preincubated for 5 mins followed by NADPH addition measured after 10 mins by LC-MS/MS analysis
T4 sequence (P08684 whole entry): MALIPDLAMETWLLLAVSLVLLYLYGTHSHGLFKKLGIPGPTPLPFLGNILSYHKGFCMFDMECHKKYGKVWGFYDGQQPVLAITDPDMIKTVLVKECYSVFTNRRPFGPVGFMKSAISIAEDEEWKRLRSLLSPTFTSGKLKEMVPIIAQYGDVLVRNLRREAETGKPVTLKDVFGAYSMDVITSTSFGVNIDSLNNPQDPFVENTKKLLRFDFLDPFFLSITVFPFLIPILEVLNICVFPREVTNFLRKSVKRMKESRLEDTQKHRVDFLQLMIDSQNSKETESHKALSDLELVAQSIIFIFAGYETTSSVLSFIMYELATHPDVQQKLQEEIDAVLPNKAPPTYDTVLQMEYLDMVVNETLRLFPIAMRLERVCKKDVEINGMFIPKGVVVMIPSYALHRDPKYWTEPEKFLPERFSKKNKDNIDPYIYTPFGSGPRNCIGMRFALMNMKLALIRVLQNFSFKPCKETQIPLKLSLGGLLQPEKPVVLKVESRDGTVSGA

[26] = molecular target: T4, Cytochrome P450 3A4; experiment: Inhibition of CYP3A4 in human liver microsomes using testosterone as substrate preincubated for 5 mins followed by NADPH addition measured after 10 mins by LC-MS/MS analysis
[27] = Solubility of the compound at pH 2.1; details: buffer
[28] = Solubility of the compound at pH 4; details: buffer
[29] = Solubility of the compound at pH 7.4; details: buffer
[30] = molecular target: T5, Nuclear receptor ROR-gamma (Mus musculus, UniProt P51450); experiment: Inverse agonist activity at RORgammat in mouse splenocytes derived naive T cells assessed as suppression of T cell differentiation to Th17 cells by measuring IL-17 secretion in presence of […]/anti-IFNgamma/TGFbeta/IL-6 for 6 days by ELISA; assay type: cell-based
T5 sequence (P51450 whole entry): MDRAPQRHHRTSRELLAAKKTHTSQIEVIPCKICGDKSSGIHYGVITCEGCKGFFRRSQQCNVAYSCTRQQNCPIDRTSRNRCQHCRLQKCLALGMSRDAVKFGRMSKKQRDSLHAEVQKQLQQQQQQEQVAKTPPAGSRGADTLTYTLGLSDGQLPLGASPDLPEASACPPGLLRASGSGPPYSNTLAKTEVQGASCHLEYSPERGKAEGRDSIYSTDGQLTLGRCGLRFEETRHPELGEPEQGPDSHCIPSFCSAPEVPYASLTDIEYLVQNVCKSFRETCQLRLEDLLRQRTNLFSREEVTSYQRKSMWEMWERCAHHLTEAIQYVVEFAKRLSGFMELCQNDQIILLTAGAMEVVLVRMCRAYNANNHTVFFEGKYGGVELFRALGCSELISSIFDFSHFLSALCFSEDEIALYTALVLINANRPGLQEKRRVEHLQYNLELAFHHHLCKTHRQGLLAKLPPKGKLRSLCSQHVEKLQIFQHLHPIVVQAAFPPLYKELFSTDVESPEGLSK

[31] = molecular target: T6, Nuclear receptor ROR-gamma (Mus musculus) (UniProt P51450); experiment: Transrepression of RORgammat in Balb/c mouse splenocytes assessed as inhibition of anti-CD3/anti-CD28 stimulated IL-17 gene expression at 0.3 uM measured after 24 hrs in presence of anti-CD3/anti-CD28; assay type: cell-based
T6 sequence (whole entry): T5 sequence (P51450 whole entry)

[32] = molecular target: T6, Nuclear receptor ROR-gamma (Mus musculus); experiment: Transrepression of RORgammat in Balb/c mouse splenocytes assessed as inhibition of anti-CD3/anti-CD28 stimulated IL-17 gene expression at 3 uM measured after 24 hrs in presence of anti-CD3/anti-CD28; assay type: cell-based
[33] = molecular target: T6, Nuclear receptor ROR-gamma (Mus musculus); experiment: Transrepression of RORgammat in Balb/c mouse splenocytes assessed as inhibition of anti-CD3/anti-CD28 stimulated IL-17 gene expression at 30 uM measured after 24 hrs in presence of anti-CD3/anti-CD28; assay type: cell-based

Row | SMILES | IC50 [1] | IC50 [2] | IC50 [3] | IC50 [4] | IC50 [5] | remaining at 0.5 h, 1 µM [14] | remaining at 0.5 h, 1 µM [15] | remaining at 0.5 h, 1 µM [16] | IC50 [17] | IC50 [25] | IC50 [26] | solubility [27] | solubility [28] | solubility [29] | other results
1 | O=C(O)c1ccc(-n2cc(C(=O)c3c(Cl)cccc3C(F)(F)F)c3c(F)cccc32)c(F)c1 | 0.016 µM | > 50 µM | 20.3 µM | > 50 µM | > 50 µM | 78% | 76% | 100% |  |  |  |  |  |  | Cmax [6]: 17.5 µM; Tmax [7]: 0.5 h; AUC(0-t) at 24 h [8]: 46.5 µM·h; Vd [9]: 1 L/kg; clearance [10]: 4.6 mL/min/kg; half-life [11]: 2.7 h; bioavailability [12]: 62%; IC50 [13]: > 30 µM
2 | O=C(O)c1ccc(-n2cc(C(=O)c3c(Cl)cccc3Cl)c3ccccc32)cc1 | 0.028 µM | 29.9 µM | 3.8 µM | 67.6 µM | > 100 µM | 99% | 76% | 99% | 0.0016 µM | > 100 µM | 15.5 µM | < 1 µM | < 1 µM | 19 µM (≈ 7.79 µg/mL) | Drug metabolism [18]: < 0.04 nmol/min/mg; Drug metabolism [19]: 0.08 nmol/min/mg; Drug metabolism [20]: < 0.04 nmol/min/mg; AUC(0-t) [21]: 12.5 µM·h; clearance [22]: 17 mL/min/kg; half-life [23]: 4.6 h; bioavailability [24]: 53%; IC50 [30]: 0.058 µM
3 | O=C(O)c1ccc(-n2cc(C(=O)c3c(Cl)cccc3Cl)c3c(F)cccc32)cc1 | 0.076 µM | > 50 µM | > 50 µM | > 50 µM | > 50 µM | 100% | 78% | 100% | 0.025 µM | > 50 µM | 49 µM | < 1 µM | < 1 µM | > 2000 µM | 
4 | O=C(O)c1ccc(-n2cc(C(=O)c3c(Cl)cccc3C(F)(F)F)c3cccc(F)c32)cc1 |  |  |  |  |  | 88% | 100% | 88% |  |  |  |  |  |  | inhibition [31]: 18%; inhibition [32]: 46%; inhibition [33]: 55%
